Experimental data published in US5057520A, “7-(peptidylpyrolidinyl)naphthyridine antibacterial compounds” (Abbott Laboratories, priority 1989, dated 1991).
≈ marks a conversion by molar mass, not a printed value. Where a name gives a salt, the structure may show the parent alone.

Legend:
[1] = tested on: E. Coli Juhl; assay: Second in vitro MIC test, Brain Heart Infusion Broth (BHIB); assay type: cell-based
[2] = tested on: Ps. Aeruginosa A5007; assay: as above; assay type: cell-based
[3] = tested on: Stap. Aureus NCTC 10649; assay: Acute mouse protection test; assay type: in vivo; conditions: mice infected i.p. with Stap. Aureus NCTC 10649, observed 7 days; for SC (ED50): SC dosing at 1 and 5 hours post-infection; for Oral (ED50): oral dosing at 1 and 5 hours post-infection
[4] = tested on: P. Aeruginosa A5007; assay: Acute mouse protection test; assay type: in vivo; conditions: mice infected i.p. with P. Aeruginosa A5007, observed 7 days; for SC (ED50): SC dosing at 1 and 5 hours post-infection; for Oral (ED50): oral dosing at 1 and 5 hours post-infection
[5] = tested on: E. Coli Juhl; assay: Acute mouse protection test; assay type: in vivo; conditions: mice infected i.p. with E. Coli JUHL, observed 7 days; for SC (ED50): SC dosing at 1 and 5 hours post-infection; for Oral (ED50): oral dosing at 1 and 5 hours post-infection
[6] = Conversion of prodrug to parent drug in whole blood at 37° C.; assay type: in vitro ADME, Dog
Description: An aqueous solution of prodrug (Z) is spiked into fresh whole blood containing sodium heparin as an anticoagulant. The sample is mixed gently by inversion and placed in a 37° waterbath. At selected time intervals an 0.5 ml aliquot of blood is removed and placed in a chilled 1.5 ml centrifuge tube (ice temperature). Samples are centrifuges at 13,000 rpm for two minutes to separate plasma. An 0.2 ml aliquot of the plasma sample is combined with 0.2 ml internal standard (7-(4-amino-2-methyl-1-pyrrolidinyl)-1-(2,4-difluorophenyl)-6-fluoro-1,4-d ihydro-4-oxo-1,8-naphthyridine-3-carboxylic acid in 0.2M sodium phosphate pH 7.2 buffer) and 6 mls CH2 Cl2 :EtoH (9:1 by volume). Samples are capped and shaken gently for 10 minutes. Samples are centrifuges at 2500 rpm for 10 minutes (4° C.). The aqueous layer is aspirated to waste and the organic layer is transferred to a conical centrifuge tube and evaporated to dryness with a stream of dry air and low heat ([…]). Samples are reconstituted with 0.2 ml mobile phase followed by vortexing. Samples are centrifuges at 2500 rpm for 10 minutes to separate precipitate. The supernatant is transferred to a WISP vial with plastic insert for HPLC analysis.

[7] = tested on: Strep. pyogenes EES 61; assay: Second in vitro MIC test, Brain Heart Infusion Broth (BHIB); assay type: cell-based
[8] = tested on: Stap. Aureus CMX 553; assay: as above; assay type: cell-based

SMILES	Solubility pH 7.4 [mg/ml]	MIC [1] [µg/mL]	MIC [2] [µg/mL]	Half Life Dog [6]	MIC [7] [µg/mL]	MIC [8] [µg/mL]	SC (ED50) [3] [mg/kg/day]	Oral (ED50) [3] [mg/kg/day]	SC (ED50) [4] [mg/kg/day]	Oral (ED50) [4] [mg/kg/day]	SC (ED50) [5] [mg/kg/day]	Oral (ED50) [5] [mg/kg/day]
CC(C)C(N)C(=O)NC1CCN(c2nc3c(cc2F)c(=O)c(C(=O)O)cn3-c2ccc(F)cc2F)C1 (stereo not drawn) [Example 19]	0.41	–	–	–	–	–	–	–	–	–	–	–
Cl.NCC(=O)N[C@@H](Cc1ccccc1)C(=O)NC1CCN(c2cc3c(cc2F)c(=O)c(C(=O)O)cn3-c2ccc(F)cc2F)C1 (stereo partly drawn) [Example 26jj, 1-(2,4-Difluorophenyl)-6-Fluoro-7-(3-Gly-L-Phe-Amino-1-Pyrrolidinyl)-1,4-Di hydro-4-Oxo-Quinoline-3-Carboxylic Acid Hydrochloride]	–	16	–	–	–	–	–	–	–	–	–	–
N[C@@H](Cc1cnc[nH]1)C(=O)NC1CCN(c2nc3c(cc2F)c(=O)c(C(=O)O)cn3-c2ccc(F)cc2F)C1 (stereo partly drawn) [Example 44c, 7-(3-L-histidine-amino-1-pyrrolidinyl)-1-(2,4-difluorophenyl)-6-fluoro-1,4-dihydro-4-oxo-1,8-naphthyridine-3-carboxylic acid hydrochloride]	–	–	> 64	–	–	–	0.7	4.0	8.3	51.3	–	–
CCCC(N)C(=O)NC1CCN(c2cc3c(cc2F)c(=O)c(C(=O)O)cn3C2CC2)C1 (stereo not drawn) [Example 26l]	–	–	–	118.5 s	–	–	4.0	–	2.8	18.2	0.5	9.4
CS(=O)(=O)CC[C@H](N)C(=O)NC1CCN(c2nc3c(cc2F)c(=O)c(C(=O)O)cn3-c2ccc(F)cc2F)C1 (stereo partly drawn) [Example 31c, 7-[3-L-Methioninesulfone-Amino-1-Pyrrolidinyl]-1-(2,4-Difluorophenyl)-6-Flu oro-1,4-Dihydro-4-Oxo 1.8-Naphthyridine-3-Carboxylic Acid Hydrochloride]	–	–	–	–	25	–	0.5	1.8	2.4	7.8	0.2	1.8
CC(N)C(=O)NC1CCN(c2c(F)cc3c(=O)c(C(=O)O)cn(C4CC4)c3c2F)C1 (stereo not drawn) [Example 26s]	–	–	–	–	–	–	1.3	4.8	2.4	5.0	0.1	1.8
CCCC(N)C(=O)NC1CCN(c2c(F)cc3c(=O)c(C(=O)O)cn(C4CC4)c3c2F)C1 (stereo not drawn) [Example 26r]	–	–	–	71.7 s	–	–	0.9	3.0	2.7	7.3	0.2	2.3
CCCC(N)C(=O)NC1CCN(c2nc3c(cc2F)c(=O)c(C(=O)O)cn3-c2ccc(F)cc2)C1 (stereo not drawn) [Example 26i]	–	–	–	108.1 s	1.56 (≈ 3.21 µM)	–	0.7	5.3	–	–	–	–
CCCC(N)C(=O)NC1CCN(c2cc3c(cc2F)c(=O)c(C(=O)O)cn3-c2ccc(F)cc2)C1 (stereo not drawn) [Example 26h]	–	0.78 (≈ 1.61 µM)	–	51.1 s	–	–	1.0	4.0	8.5	101.3	0.8	12.1
CCCC(N)C(=O)NC1CCN(c2cc3c(cc2F)c(=O)c(C(=O)O)cn3-c2ccc(F)cc2F)C1 (stereo not drawn) [Example 26b]	–	–	–	43.4 s	–	–	0.8	27.9	6.7	18.2	–	–
CCC[C@H](N)C(=O)NC1CCN(c2nc3c(cc2F)c(=O)c(C(=O)O)cn3CC)C1 (stereo partly drawn) [Example 26ff]	–	–	–	92.6 s	–	–	–	–	10.3	30.5	–	–
CCCC(N)C(=O)NC1CCN(c2nc3c(cc2F)c(=O)c(C(=O)O)cn3C2CC2)C1 (stereo not drawn) [Example 26p]	–	–	–	70.1 s	–	–	6.8	4.5	2.8	9.1	–	–
CC(C)CC(N)C(=O)NC1CCN(c2nc3c(cc2F)c(=O)c(C(=O)O)cn3C2CC2)C1 (stereo not drawn) [Example 26o]	–	–	–	108.6 s	–	–	1.0	4.0	3.9	6.2	0.2	1.2
NC(=O)C[C@H](N)C(=O)NC1CCN(c2nc3c(cc2F)c(=O)c(C(=O)O)cn3-c2ccc(F)cc2F)C1 (stereo partly drawn) [Example 41, 7-(3-L-Asparagine-amino-1-pyrrolidinyl)-1-(2,4-difluorophenyl)-6-fluoro-1,4-dihydro-4-oxo-1,8-naphthyridine-3-carboxylic acid hydrochloride]	–	–	–	–	–	–	0.7	2.9	2.8	17.2	–	–
CC(N)C(=O)NC(Cc1ccccc1)C(=O)NC1CCN(c2nc3c(cc2F)c(=O)c(C(=O)O)cn3-c2ccc(F)cc2F)C1 (stereo not drawn) [Example 11]	0.59	16 (≈ 25.7 µM)	128 (≈ 206 µM)	10.4 m	–	16.0 (≈ 25.7 µM)	0.7	2.0	9.7	65.3	–	–

Now from value to molecule, other results behind:

Solubility pH 7.4 [mg/ml]	MIC [1] [µg/mL]	MIC [2] [µg/mL]	Half Life Dog [6]	MIC [7] [µg/mL]	MIC [8] [µg/mL]	SMILES	SC (ED50) [3] [mg/kg/day]	Oral (ED50) [3] [mg/kg/day]	SC (ED50) [4] [mg/kg/day]	Oral (ED50) [4] [mg/kg/day]	SC (ED50) [5] [mg/kg/day]	Oral (ED50) [5] [mg/kg/day]
0.06	–	–	–	–	–	CSCC[C@H](NC(=O)[C@@H](N)CC(C)C)C(=O)NC1CCN(c2nc3c(cc2F)c(=O)c(C(=O)O)cn3-c2ccc(F)cc2F)C1 (stereo partly drawn) [Example 55p, 7-(3-Leu-Met-amino-1-pyrrolidinyl)-6-fluoro-1-(2,4-difluorophenyl)-1,4-dih ydro-4-oxo-1,8-naphthyridine-3-carboxylic acid]	–	–	–	–	–	–
2.40	–	–	–	–	–	N[C@@H](CC(=O)O)C(=O)NC1CCN(c2nc3c(cc2F)c(=O)c(C(=O)O)cn3-c2ccc(F)cc2F)C1 (stereo partly drawn) [Example 45, 7-(3-L-Asp-amino-1-pyrrolidinyl)-1-(2,4-difluorophenyl)-6-fluoro-1,4-dihyd ro-4-oxo-1,8-naphthyridine-3-carboxylic acid hydrochloride]	0.7	1.5	6.6	13.0	–	–
2.0	–	–	–	–	–	CC(C)C[C@H](NC(=O)[C@H](C)N)C(=O)NC1CCN(c2nc3c(cc2F)c(=O)c(C(=O)O)cn3-c2ccc(F)cc2F)C1 (stereo partly drawn) [Example 55r, 7-(3-Ala-Leu-amino-1-pyrrolidinyl)-6-fluoro-1-(2,4-difluorophenyl)-1,4-dih ydro-4-oxo-1,8-naphthyridine-3-carboxylic acid]	–	–	–	–	–	–
2.50	–	–	–	–	–	CSCC[C@H](NC(=O)[C@H](C)N)C(=O)NC1CCN(c2nc3c(cc2F)c(=O)c(C(=O)O)cn3-c2ccc(F)cc2F)C1 (stereo partly drawn) [Example 55n, 7-(3-Ala-Met-amino-1-pyrrolidinyl)-6-fluoro-1-(2,4-difluorophenyl)-1,4-dih ydro-4-oxo-1,8-naphthyridine-3-carboxylic acid]	–	–	–	–	–	–
0.19	–	–	–	–	–	CC(C)C[C@H](NC(=O)[C@@H](N)CC(C)C)C(=O)NC1CCN(c2nc3c(cc2F)c(=O)c(C(=O)O)cn3-c2ccc(F)cc2F)C1 (stereo partly drawn) [Example 55q, 7-(3 Leu-Leu-amino-1-pyrrolidinyl)-6-fluoro-1-(2,4-difluorophenyl)-1,4-dihydro- 4-oxo-1,8-naphthyridine-3-carboxylic acid]	–	–	–	–	–	–
–	–	> 100	46 m	100	100	Cl.Cl.NCCCC[C@H](N)C(=O)NC1CCN(c2nc3c(cc2F)c(=O)c(C(=O)O)cn3-c2ccc(F)cc2F)C1 (stereo partly drawn) [Example 46, 7-(3-Lys-amino-1-pyrrolidinyl)-1-(2,4-difluorophenyl)-6-fluoro-1,4-dihydro-4-oxo-1,8-naphthyridine-3-carboxylic acid dihydrochloride]	0.7	3.4	4.5	12.5	–	–
0.31	–	–	–	–	–	CSCC[C@H](NC(=O)[C@@H](N)CCSC)C(=O)NC1CCN(c2nc3c(cc2F)c(=O)c(C(=O)O)cn3-c2ccc(F)cc2F)C1 (stereo partly drawn) [Example 55o, 7-(3-Met-Met-amino-1-pyrrolidinyl)-6-fluoro-1-(2,4-difluorophenyl)-1,4-dih ydro-4-oxo-1,8-naphthyridine-3-carboxylic acid]	–	–	–	–	–	–
